System: Human sebocytes
Experiment: Neutral fat detection (Nile red staining, fluorescence intensity) in human sebocytes
Type: cell-based
Procedure: Human sebocytes (Cat. No. 36079-01, Celprogen, Torrance, Calif., USA) were cultured in Dulbecco's Modified Eagle Medium (DMEM): Nutrient Mixture F-12 (DMEM/F12) purchased from Thermo Fisher Scientific Limited (Barrington, Ill., USA), 10% fetal bovine serum (FBS) purchased from Gibco, Grand Island, N.Y., USA and penicillin/streptomycin (100 IU/50 […]), incubated at 37° C. in the 5% CO2 atmosphere.
Human sebocytes were implanted in 24- or 96-well plates. After 24 hours of culture, the cells were divided into a negative control group, a positive control group and an experimental group. […] The treated human sebocytes were cultured for two days. Human sebocytes were fixed with 4% formaldehyde at room temperature. After 60 minutes of fixation, the cells were washed with PBS and stain with Nile Red solution (1 μg/ml in PBS) at 37° C. for 15 minutes. Next, the cells were washed and observed under a fluorescent microscope. Fluorescence intensity was measured with fluorometer Spectra Max i3.

[1] = 0.1 mM LA + 50 μg/mL peptide vs LA alone, FIG. 1E

Compound | lipid content compared with the negative control group (0.1 mM LA alone vs negative control, FIG. 1E) | fluorescence intensity (lipid content of sebocytes, Nile red) (0.1 mM linoleic acid (LA) alone, positive control group, negative control about 1, FIG. 1E, cultured two days) | fluorescence intensity (lipid content of sebocytes, Nile red) (50 μg/mL peptide, negative control about 1.0, FIG. 2E) | fluorescence intensity (lipid content of sebocytes, Nile red) (100 μg/mL peptide, negative control about 1.0, FIG. 2E) | fluorescence intensity (lipid content of sebocytes, Nile red) (0.1 mM LA + 50 μg/mL lactoferrin peptide, negative control about 1, positive control (LA) about 3.44, FIG. 1E) | lipid content increase compared with the positive control group (LA) [1] | promoting and/or increasing the content of lipid synthesized by the induction of LA (significance vs positive control) [1] | fluorescence intensity (lipid content of sebocytes, Nile red) (400 μg/mL peptide (so in the source), negative control about 1.0, FIG. 2E) | concentration dependence of the lipid content increase (50, 100, 200 μg/mL peptide, FIG. 2)
CCCCC/C=C\C/C=C\CCCCCCCC(=O)O [LA, linoleic acid, reference compound] | more than 3 times | about 3.44 | – | – | – | – | – | – | –
Lf13: Lactoferrin-derived peptide purchased from DgPeptides; presumably the derived peptide comprising the amino acid sequence of SEQ ID NO: 01 (APRKNVRWCTISQ; Lactoferrin derived peptide) | – | – | about 1.29 | about 1.44 | about 4.67 | 40% | significant difference | about 1.54 | dose-dependent manner

— patent US20230002449A1, “DERIVED PEPTIDE OF LACTOFERRIN AND METHOD THEREOF FOR PROMOTING AND/OR INCREASING LIPID SYNTHESIS” (RENORIGIN INNOVATION INSTITUTE CO., LTD., priority 2021, published 2023)
